For the assay, the system named is RS4;11 cells. Description: RS4;11 cell viability assay (CellTiter Glo).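 Note: acute lymphoblastic leukemia line RS4,11, EC50 derived from percentage of viable cells after treatment relative to untreated controls, cell killing taken as a measure of Bcl-2 inhibition.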 It counts as cell-based, human. The settings on record: read-out: RS4. For orientation: In ATP-based viability assays light output follows the ATP content of the culture.
The mark [1] stands for this setting: Homo sapiens, RS4-11, 48 h, 50,000 cells per well, 10% human serum, 48 hours, 11 EC50 Values.

pEC50: −log10 of the molar value. Read-outs that look alike come from different tables or passages of the source.

Method: The acute lymphoblastic leukemia (ALL) cell line RS4;11 was used as the primary human cell line to assess the cellular activity of Bcl-2 selective agents in vitro and their efficacy in vivo.
Cell cytotoxicity EC50 values were assessed using CellTiter Glo (Promega) according to the manufacturer's recommendations. The EC50 values were determined as a percentage of viable cells following treatment compared to the untreated control cells.

Regarding `CC1(C)CCC(CN2CCN(c3ccc(C(=O)NS(=O)(=O)c4ccc(OCC5COCCO5)c([N+](=O)[O-])c4)c(Oc4ccc5[nH]ccc5c4)c3)CC2)=C(c2ccc(Cl)cc2)C1` (centres unmarked) [Example 92, 4-(4-{[2-(4-chlorophenyl)-4,4-dimethylcyclohex-1-en-1-yl]methyl}piperazin-1-yl)-N-{[4-(1,4-dioxan-2-ylmethoxy)-3-nitrophenyl]sulfonyl}-2-(1H-indol-5-yloxy)benzamide], the pEC50 runs as follows: under setting [1], 7.09; (Homo sapiens, RS4-11, Table 4, selected compounds in U.S. Pat. Application No. 12/631404, 11 EC50) 7.09.

In the case of `CC1(C)CCC(CN2CCN(c3ccc(C(=O)NS(=O)(=O)c4ccc(NCCCNC5CC5)c([N+](=O)[O-])c4)c(Oc4cnc5[nH]ccc5c4)c3)CC2)=C(c2ccc(Cl)cc2)C1` [Example 291, 4-(4-{[2-(4-chlorophenyl)-4,4-dimethylcyclohex-1-en-1-yl]methyl}piperazin-1-yl)-N-[(4-{[3-(cyclopropylamino)propyl]amino}-3-nitrophenyl)sulfonyl]-2-(1H-pyrrolo[2,3-b]pyridin-5-yloxy)benzamide], under setting [1], the pEC50 was 7.79.

As to `CC1(C)CCC(CN2CCN(c3ccc(C(=O)NS(=O)(=O)c4ccc(N[C@H]5CCCNC5=O)c([N+](=O)[O-])c4)c(Oc4cnc5[nH]ccc5c4)c3)CC2)=C(c2ccc(Cl)cc2)C1` [Example 160, 4-(4-{[2-(4-chlorophenyl)-4,4-dimethylcyclohex-1-en-1-yl]methyl}piperazin-1-yl)-N-[(3-nitro-4-{[(3S)-2-oxopiperidin-3-yl]amino}phenyl)sulfonyl]-2-(1H-pyrrolo[2,3-b]pyridin-5-yloxy)benzamide], under setting [1], the pEC50 was 7.08.

Turning to `CC1(C)CCC(CN2CCN(c3ccc(C(=O)NS(=O)(=O)c4ccc(OC[C@@H]5CC(F)(F)CN5C5COC5)c([N+](=O)[O-])c4)c(Oc4cnc5[nH]ccc5c4)c3)CC2)=C(c2ccc(Cl)cc2)C1` [Example 168, 4-(4-{[2-(4-chlorophenyl)-4,4-dimethylcyclohex-1-en-1-yl]methyl}piperazin-1-yl)-N-[(4-{[(2S)-4,4-difluoro-1-oxetan-3-ylpyrrolidin-2-yl]methoxy}-3-nitrophenyl)sulfonyl]-2-(1H-pyrrolo[2,3-b]pyridin-5-yloxy)benzamide], the pEC50 under setting [1] is 7.05.

Regarding `CC1(C)CCC(CN2CCN(c3ccc(C(=O)NS(=O)(=O)c4ccc(NCC56CC7CC(C5)C(O)C(C7)C6)c([N+](=O)[O-])c4)c(Oc4cnc5[nH]ccc5c4)c3)CC2)=C(c2ccc(Cl)cc2)C1` (centres unmarked) [Example 200, 4-(4-{[2-(4-chlorophenyl)-4,4-dimethylcyclohex-1-en-1-yl]methyl}piperazin-1-yl)-N-{[4-({[(Z)-4-hydroxy-1-adamantyl]methyl}amino)-3-nitrophenyl]sulfonyl}-2-(1H-pyrrolo[2,3-b]pyridin-5-yloxy)benzamide], the pEC50 (50,000 cells per well, 10% human serum, 48 hours, 11 EC50 Values) was 7.96.

With `CC1(C)CCC(CN2CCN(c3ccc(C(=O)NS(=O)(=O)c4ccc(NCC5CN(C(CF)CF)CCO5)c([N+](=O)[O-])c4)c(Oc4cnc5[nH]ccc5c4)c3)CC2)=C(c2ccc(Cl)cc2)C1` (centres unmarked) [Example 252, 4-(4-{[2-(4-chlorophenyl)-4,4-dimethylcyclohex-1-en-1-yl]methyl}piperazin-1-yl)-N-{[4-({[4-(1,3-difluoropropan-2-yl)morpholin-2-yl]methyl}amino)-3-nitrophenyl]sulfonyl}-2-(1H-pyrrolo[2,3-b]pyridin-5-yloxy)benzamide], under setting [1], the pEC50 is 8.46.

In the case of `CC1(C)CCC(CN2CCN(c3ccc(C(=O)NS(=O)(=O)c4ccc(NCC5CCCN(CC#N)C5)c([N+](=O)[O-])c4)c(Oc4cnc5[nH]ccc5c4)c3)CC2)=C(c2ccc(Cl)cc2)C1` (centres unmarked) [Example 229, 4-(4-{[2-(4-chlorophenyl)-4,4-dimethylcyclohex-1-en-1-yl]methyl}piperazin-1-yl)-N-{[4-({[1-(cyanomethyl)piperidin-3-yl]methyl}amino)-3-nitrophenyl]sulfonyl}-2-(1H-pyrrolo[2,3-b]pyridin-5-yloxy)benzamide], the pEC50 under setting [1] is less than 6.00.

Values taken from patent publication US20240043404A1 (AbbVie Inc., priority 2009, published 2024).
